From US6881841B2, “Dibenzosuberanyl piperazine derivatives and drug-resistance overcoming agents containing the derivatives” (priority 2000, dated 2005) come the findings set out here.

For data set [1], the system named is Chloroquine-resistant malaria plasmodium Plasmodium chabaudi (AS strain: chloroquine-resistant (3CQ)). As to the kind of experiment: Test 1: resistance overcoming effect, in vivo test with chloroquine-resistant mouse malaria strain. The conditions noted are these: ICR male mice, days 0-3, counted on 5th day; for number of PRBCs per 10,000 red blood cells, Chloroquine 0 mg: test compound 50 mg/kg i.p. + chloroquine 0 mg/kg i.p.; for number of PRBCs per 10,000 red blood cells, Chloroquine 3 mg: test compound 50 mg/kg i.p. + chloroquine 3 mg/kg i.p.; for number of PRBCs per 10,000 red blood cells, Chloroquine 3 mg / number of PRBCs per 10,000 red blood cells, Chloroquine 2 mg: Control = chloroquine only; for number of PRBCs per 10,000 red blood cells, Chloroquine 2 mg: test compound 50 mg/kg i.p. + chloroquine 2 mg/kg i.p. The procedure:
With respect to Compounds 1 to 7, these invention compounds were tested for their resistance overcoming effect in an in vivo test making use of a chloroquine-resistant mouse malaria strain. The test was conducted following the following procedure.
Chloroquine-resistant malaria plasmodium Plasmodlium chabaudi (AS strain: chloroquine-resistant (3CQ)); and
Mice: ICR male mice of 4-5 weeks old (20 to 25 g)
(§1) • 1) Preparation of the compounds: Each test compound was dissolved beforehand in 1/10 volume of DMSO such that the dose of the compound to each mouse per administration would become a final concentration of 50 mg/kg/0.2 mL. The resulting solution was diluted with 0.85% physiological saline to provide a 10% DMSO suspension. • 2) Inoculation with the chloroquine-resistant malaria plasmodium, Plasmodium chabaudi (AS strain: chloroquine-resistant (3CQ): Parasitized red blood cells (PRBCs) (5×10^6 (the 6th power of 10) cells/0.2 mL) were also prepared with 0.85% physiological saline, and inoculated through the caudal vein of each mouse with a 26×½-gauge tuberculin needle. • 3) Administration of the compounds and chloroquine: Two hours after the inoculation with the plasmodium, each test compound (50 mg/kg/0.2 mL) was intraperitoneally administered with 21×½-gauge needles to three groups of mice per compound. Chloroquine solutions of three concentrations, which had been prepared with 0.85% physiological saline to give final concentrations of 0 mg/kg/0.1 mL, 2 mg/kg/0.1 mL and 3 mg/kg/0.1 mL, respectively, were then also administered intraperitoneally with 26×½-gauge tuberculin needles to the three groups of mice which had been administered with the compound. To three control groups, the three chloroquine solutions were only administered, respectively. The compound and chloroquine were administered four times in total, that is, on the 0th, 1st, 2nd and 3rd days after the inoculation with the plasmodium. • 4) Determination of effect: Every day after the inoculation with the plasmodium, the tail of each mouse was cut to a minimum at the tip thereof with scissors to cause bleeding, and a Giemsa staining specimen smeared with a thin film of the blood was prepared. On the 5th day, the number of PRBCs per 10,000 red blood cells was counted, and based on a comparison of the PRBC number with the corresponding number of the group administered only with chloroquine, the chloroquine resistance overcoming effect of the test compound was determined.

Data set [2] shares this test system. Briefly: Test 2: resistance overcoming effect of Compound 8, as Test 1 but determined on the fourth day. It is filed as in vivo. The note with it: for number of PRBCs per 10,000 red blood cells, Chloroquine 2 mg: test compound 50 mg/kg i.p. + chloroquine 2 mg/kg i.p.; for number of PRBCs per 10,000 red blood cells, Chloroquine 2 mg / number of PRBCs per 10,000 red blood cells, Chloroquine 3 mg: Control = chloroquine only; for number of PRBCs per 10,000 red blood cells, Chloroquine 3 mg: test compound 50 mg/kg i.p. + chloroquine 3 mg/kg i.p. The procedure: as §1
Resistance overcoming effect of Compound 8 was tested in a similar manner as in Test 1. The time of determination of the effect was set on the fourth day.

The mark [3] stands for this setting: ICR male mice, days 0-3, determined on fourth day.

For the molecule `OCC#CCN1CCN(C2c3ccccc3CCc3ccccc32)CC1`, the melting point was 129 °C.

For the molecule `C=CCCC(O)CN1CCN(C2c3ccccc3CCc3ccccc32)CC1` (centres unmarked) [Compound 3, 1-Dibenzosuberanyl-4-(2-hydroxy-5-hexenyl)-piperazine], in data set [1], the “number of PRBCs per 10,000 red blood cells, Chloroquine 0 mg” value is 4500 per 10,000 red blood cells and the “number of PRBCs per 10,000 red blood cells, Chloroquine 3 mg” value was 292 per 10,000 red blood cells.

Consider `C=CCCCCCCC(O)CN1CCN(C2c3ccccc3CCc3ccccc32)CC1` (centres unmarked) [Compound 1, 1-Dibenzosuberanyl-4-(2-hydroxydecan-9-en-1-yl)piperazine], for which, in data set [1], the “number of PRBCs per 10,000 red blood cells, Chloroquine 0 mg” value is given as 4250 per 10,000 red blood cells; the “number of PRBCs per 10,000 red blood cells, Chloroquine 2 mg” value was 3100 per 10,000 red blood cells; the “number of PRBCs per 10,000 red blood cells, Chloroquine 3 mg” value is recorded as 280 per 10,000 red blood cells.

Consider `CCCCCCCCC(O)CN1CCN(C2c3ccccc3CCc3ccccc32)CC1` (centres unmarked) [Compound 8, 1-Dibenzosuberanyl-4-(2-hydroxydecanyl)piperazine], for which the “number of PRBCs per 10,000 red blood cells, Chloroquine 0 mg” value in data set [2] (ICR male mice, test compound 50 mg/kg i.p. + chloroquine 0 mg/kg i.p., days 0-3, determined on fourth day) is on record as 7475 per 10,000 red blood cells. Also, in data set [2] (setting [3]), the “number of PRBCs per 10,000 red blood cells, Chloroquine 2 mg” value is 4875 per 10,000 red blood cells and the “number of PRBCs per 10,000 red blood cells, Chloroquine 3 mg” value is given as 3025 per 10,000 red blood cells. Besides, the “chloroquine resistance overcoming effect (in words)” value in data set [2] (conclusion from Table 2) was “overcoming of chloroquine resistance”.

Take `C=CCCCCC(O)CN1CCN(C2c3ccccc3CCc3ccccc32)CC1` (centres unmarked) [Compound 2, 1-Dibenzosuberanyl-4-(2-hydroxy-7-octenyl)-piperazine]: in data set [1], the “number of PRBCs per 10,000 red blood cells, Chloroquine 0 mg” value is recorded as 8450 per 10,000 red blood cells; the “number of PRBCs per 10,000 red blood cells, Chloroquine 2 mg” value is on record as 0 per 10,000 red blood cells; the “number of PRBCs per 10,000 red blood cells, Chloroquine 3 mg” value is given as 0 per 10,000 red blood cells.

In turn, `C=CC(CO)N1CCN(C2c3ccccc3CCc3ccccc32)CC1` (centres unmarked) [Compound 5, 1-Dibenzosuberanyl-4-(1-hydroxybutan-3-en-2-yl)piperazine] returned a melting point of 123 °C. Besides, in data set [1], the “number of PRBCs per 10,000 red blood cells, Chloroquine 3 mg” value is 0 per 10,000 red blood cells.

Take `CCN(CC)CCCC(C)Nc1ccnc2cc(Cl)ccc12` (centres unmarked) [Control, chloroquine, reference compound]: in data set [1], the “number of PRBCs per 10,000 red blood cells, Chloroquine 2 mg” value was 4900 per 10,000 red blood cells and the “number of PRBCs per 10,000 red blood cells, Chloroquine 3 mg” value was 3750 per 10,000 red blood cells. In addition, in data set [2] (setting [3]), the “number of PRBCs per 10,000 red blood cells, Chloroquine 2 mg” value is 4525 per 10,000 red blood cells and the “number of PRBCs per 10,000 red blood cells, Chloroquine 3 mg” value was 3600 per 10,000 red blood cells.

`C=CC(O)CN1CCN(C2c3ccccc3CCc3ccccc32)CC1` (centres unmarked) [Compound 4, 1-Dibenzosuberanyl-4-(2-hydroxy-3-butenyl)-piperazine] registered a melting point of 93 °C. In data set [1], the “number of PRBCs per 10,000 red blood cells, Chloroquine 0 mg” value is on record as 8000 per 10,000 red blood cells; the “number of PRBCs per 10,000 red blood cells, Chloroquine 2 mg” value is 430 per 10,000 red blood cells; the “number of PRBCs per 10,000 red blood cells, Chloroquine 3 mg” value was 0 per 10,000 red blood cells.

In general, melting point refers to the temperature of the solid-liquid transition.
